Assay results as given in patent publication US20230381321A1, “CAMPTOTHECIN CONJUGATES” (priority 2022, published 2023).
Where two headings read alike, the source gives them in different places.

Tests used:
Format in all cases: cell-based
[1] = system: anaplastic large cell lymphoma cells (DELBVR); test: In vitro potency (CellTiter-Glo, 96 h) on DELBVR; conditions: read-out: DELBVR IC50
Outline: (§1)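 Luminescent viability signal reports growth inhibition after continuous exposure of cells to serially diluted […]. Cells, grown in RPMI 1640 plus 20% FBS, had been plated in log phase one day before dosing.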

[2] = system: non-small-cell lung cancer cells (Calu1); test: In vitro potency (CellTiter-Glo, 96 h) on Calu1; conditions: read-out: Calu1 IC50
Outline: as §1

[3] = system: breast cancer cells (MDA-MB-231); test: In vitro potency (CellTiter-Glo, 96 h) on MDA-MB-231; conditions: read-out: MDAMB 231 IC50
Outline: as §1

[4] = system: renal carcinoma cells (786-O); test: In vitro potency (CellTiter-Glo, 96 h) on 786-O; conditions: read-out: 786-O IC50
Outline: as §1

[5] = system: anaplastic large cell lymphoma cells (Karpas299); test: In vitro potency (CellTiter-Glo, 96 h) on Karpas299; conditions: read-out: Karpas299 IC50
Outline: as §1

melanoma cells (A2058) = test: In vitro potency (CellTiter-Glo, 96 h) on A2058; conditions: read-out: A2058 IC50
Outline: as §1

[6] = system: Hodgkin's lymphoma cells (L540cy); test: In vitro potency (CellTiter-Glo, 96 h) on L540cy; conditions: read-out: L540cy IC50
Outline: as §1

[7] = system: acute myeloid leukemia cells (MOLM-13); test: In vitro potency (CellTiter-Glo, 96 h) on MOLM-13; conditions: read-out: MOLM-13 IC50
Outline: as §1

[8] = In vitro potency (CellTiter-Glo, 96 h) on Ls174T; conditions: read-out: Ls174T IC50
Outline: as §1

[9] = system: B-lymphocyte cancer cells (SU-DHL4); test: In vitro potency (CellTiter-Glo, 96 h) on SU-DHL4; conditions: read-out: SU-DHL-4 IC50
Outline: as §1

[10] = system: pancreatic cancer cells (BxPC3); test: In vitro potency (CellTiter-Glo, 96 h) on BxPC3; conditions: read-out: BxPC3 IC50
Outline: as §1

[11] = system: anaplastic large cell lymphoma cells (DEL); test: In vitro potency (CellTiter-Glo, 96 h) on DEL; conditions: read-out: DEL IC50
Outline: as §1

[12] = 96 h, CPT free drugs, CellTiter-Glo after 96 h exposure
[13] = Homo sapiens, Calu-1, 96 h, CPT free drugs, CellTiter-Glo after 96 h exposure
[14] = Homo sapiens, MDA-MB-231, 96 h, CPT free drugs, CellTiter-Glo after 96 h exposure
[15] = Homo sapiens, 786-0, 96 h, CPT free drugs, CellTiter-Glo after 96 h exposure
[16] = Homo sapiens, KARPAS-299, 96 h, CPT free drugs, CellTiter-Glo after 96 h exposure
[17] = Homo sapiens, A2058, 96 h, CPT free drugs, CellTiter-Glo after 96 h exposure
[18] = L540cy, 96 h, CPT free drugs, CellTiter-Glo after 96 h exposure
[19] = Homo sapiens, MOLM-13, 96 h, CPT free drugs, CellTiter-Glo after 96 h exposure
[20] = Homo sapiens, LS174T, CPT free drugs, CellTiter-Glo after 96 h exposure
[21] = Homo sapiens, SU-DHL-4, 96 h, CPT free drugs, CellTiter-Glo after 96 h exposure
[22] = Homo sapiens, BXPC-3, 96 h, CPT free drugs, CellTiter-Glo after 96 h exposure
[23] = CPT free drugs, CellTiter-Glo after 96 h exposure

Compound | IC50 [1, 12] [nM] | IC50 [2, 13] [nM] | IC50 [3, 14] [nM] | IC50 [4, 15] [nM] | IC50 [5, 16] [nM] | IC50 (melanoma cells (A2058); [17]) [nM] | IC50 [6, 18] [nM] | IC50 [7, 19] [nM] | IC50 [8, 20] [nM] | IC50 [9, 21] [nM] | IC50 [10, 22] [nM] | IC50 [11, 12] [nM] | IC50 ([2]; Homo sapiens, Calu-1, 96 h) [nM] | IC50 ([7]; Homo sapiens, MOLM-13, 96 h) [nM] | also measured
CC[C@@]1(O)C(=O)OCc2c1cc1n(c2=O)Cc2c-1nc1cc3c(cc1c2Cn1ccnc1)OCO3 [Compound 7ai] | 3 | 81 | 52 | 12 | 6 | 3 | 4 | 9 | 8 | 3 | 17 | 1 |  |  | 
CC[C@@]1(O)C(=O)OCc2c1cc1n(c2=O)Cc2c-1nc1cc3c(cc1c2CN)C(C)CO3 (single isomer, unassigned) [Compound 11a] |  |  |  |  |  |  |  |  |  |  |  |  |  |  | IC50 [1, 23]: 4 nM; IC50 [2, 23]: 131 nM; IC50 [3, 23]: 100 nM; IC50 [4, 23]: 15 nM; IC50 [5, 23]: 13 nM; IC50 (melanoma cells (A2058); [23]): 5 nM; IC50 [6, 23]: 6 nM; IC50 [7, 23]: 14 nM; IC50 [8, 23]: > 1000 nM; IC50 [9, 23]: 3 nM; IC50 [10, 23]: 23 nM; IC50 [11, 23]: 2 nM
CC[C@@]1(O)C(=O)OCc2c1cc1n(c2=O)Cc2c-1nc1cc3c(cc1c2Cn1cnc(CO)c1)OCO3 [Compound 7aj] |  |  |  |  |  |  |  |  |  |  |  |  | > 1000 | 81 | IC50 ([1]; 96 h): 16 nM; IC50 ([3]; Homo sapiens, MDA-MB-231, 96 h): 706 nM; IC50 ([4]; Homo sapiens, 786-0, 96 h): 99 nM; IC50 ([5]; Homo sapiens, KARPAS-299, 96 h): 55 nM; IC50 (melanoma cells (A2058); Homo sapiens, A2058, 96 h): 57 nM; IC50 ([6]; L540cy, 96 h): 56 nM; IC50 ([8]; Homo sapiens, LS174T, 96 h): 64 nM; IC50 ([9]; Homo sapiens, SU-DHL-4, 96 h): 34 nM; IC50 ([10]; Homo sapiens, BXPC-3, 96 h): 103 nM; IC50 ([11]; 96 h): 14 nM
CC[C@@]1(O)C(=O)OCc2c1cc1n(c2=O)Cc2c-1nc1cc(F)cc(Br)c1c2CN [Compound 2aw] | 15 | 269 | 456 | 58 | 36 | 18 | 25 | 199 | > 1000 | 22 | 149 | 15 |  |  | 
CC[C@@]1(O)C(=O)OCc2c1cc1n(c2=O)Cc2c-1nc1cc(F)c(C)c(-c3ccccc3)c1c2CN [Compound 6j] | 5 | 36 | 103 | 12 | 9 | 10 | 9 | 15 | 12 | 14 | 30 | 4 |  |  | 
C/C=C(\C)c1c(C)c(F)cc2nc3c(c(CN)c12)Cn1c-3cc2c(c1=O)COC(=O)[C@]2(O)CC [Compound 6a] | 3 | 21 | 7 | 6 | 5 | 5 | 4 | 4 | 12 | 2 | 8 | 2 |  |  | 
CC[C@@]1(O)C(=O)OCc2c1cc1n(c2=O)Cc2c-1nc1cc(F)c(C)c(-c3ccc(O)cc3)c1c2CN [Compound 6f] | 8 | 294 | 139 | 97 | 59 | 17 | 23 | 51 | > 1000 | 19 | 46 | 9 |  |  | 
CC[C@@]1(O)C(=O)OCc2c1cc1n(c2=O)Cc2c-1nc1cc3c(cc1c2CO)CCO3 [Compound 35] |  |  |  |  |  |  |  |  |  |  |  |  | 9 | 22 | IC50 ([1]; 96 h): 1 nM; IC50 ([3]; Homo sapiens, MDA-MB-231, 96 h): 5 nM; IC50 ([4]; Homo sapiens, 786-0, 96 h): 4 nM; IC50 ([5]; Homo sapiens, KARPAS-299, 96 h): 4 nM; IC50 (melanoma cells (A2058); Homo sapiens, A2058, 96 h): 2 nM; IC50 ([6]; L540cy, 96 h): 2 nM; IC50 ([8]; Homo sapiens, LS174T, 96 h): 3 nM; IC50 ([9]; Homo sapiens, SU-DHL-4, 96 h): 1 nM; IC50 ([10]; Homo sapiens, BXPC-3, 96 h): 6 nM; IC50 ([11]; 96 h): 0.6 nM
CC[C@@]1(O)C(=O)OCc2c1cc1n(c2=O)Cc2c-1nc1cc3c(cc1c2CN)CCS3 [Compound 2ar] | 5 | 26 | 14 | 26 | 29 | 7 | 4 | 258 | 14 | 13 | 43 | 7 |  |  | 
CCc1c(C)c(F)cc2nc3c(c(CN)c12)Cn1c-3cc2c(c1=O)COC(=O)[C@]2(O)CC [Compound 10, (S)-11-(aminomethyl)-4,10-diethyl-8-fluoro-4-hydroxy-9-methyl-1,12-dihydro-14H-pyrano[3′,4′:6,7]indolizino[1,2-b]quinoline-3,14(4H)-dione] |  |  |  |  |  |  |  |  |  |  |  |  | 95 | 149 | IC50 ([1]; 96 h): 15 nM; IC50 ([3]; Homo sapiens, MDA-MB-231, 96 h): 59 nM; IC50 ([4]; Homo sapiens, 786-0, 96 h): 54 nM; IC50 ([5]; Homo sapiens, KARPAS-299, 96 h): 57 nM; IC50 (melanoma cells (A2058); Homo sapiens, A2058, 96 h): 33 nM; IC50 ([6]; L540cy, 96 h): 51 nM; IC50 ([8]; Homo sapiens, LS174T, 96 h): 33 nM; IC50 ([9]; Homo sapiens, SU-DHL-4, 96 h): 15 nM; IC50 ([10]; Homo sapiens, BXPC-3, 96 h): 64 nM; IC50 ([11]; 96 h): 7 nM
CC[C@@]1(O)C(=O)OCc2c1cc1n(c2=O)Cc2c-1nc1cc3c(cc1c2CN)CC=C3 [Compound 5] | 4 |  | 218 | 16 | 10 | 7 | 9 |  | > 1000 | 7 | 40 | 4 | 129 | 258 | 
CC[C@@]1(O)C(=O)OCc2c1cc1n(c2=O)Cc2c-1nc1cc(F)c(C)c(C3=CCOCC3)c1c2CN [Compound 6h] | 7 | 155 | 102 | 36 | 28 | 20 | 19 | 31 | 48 | 14 | 100 | 6 |  |  | 
CC[C@@]1(O)C(=O)OCc2c1cc1n(c2=O)Cc2c-1nc1cc(F)c(C)c(C3=CCCC3)c1c2CN [Compound 6c] | 2 | 15 | 7 | 4 | 3 | 5 | 3 | 4 | 18 | 2 | 5 | 1 |  |  | 
